The target in test [1] is TACE enzyme (Homo sapiens, UniProt P78536). Briefly: Enzymatic assay for TACE inhibition. It counts as biochemical. To be noted: for % TACE inhibition at 10 μM: 10 μM compound.
Protocol: (§1) A serial 3-fold dilution over 10 points is carried out so as to have a concentration range of from 10 μM to 0.5 nM final concentration. […] The substrate is used at 40 μM. […] The IC50 is determined using mathematical processing software (XLfit).
A further test deals with MMP1 (Homo sapiens (Human), UniProt P03956). Briefly: Selectivity assay MMP1. The test is classed as biochemical.
Another test deals with MMP3 (Homo sapiens (Human), UniProt P08254). Description: Selectivity assay MMP3. The test is classed as biochemical.
The target of the next test is MMP9 (Homo sapiens (Human), UniProt P14780). Description: Selectivity assay MMP9. The test is classed as biochemical.
Sequence of MMP9 (P14780 94-707, species assumed): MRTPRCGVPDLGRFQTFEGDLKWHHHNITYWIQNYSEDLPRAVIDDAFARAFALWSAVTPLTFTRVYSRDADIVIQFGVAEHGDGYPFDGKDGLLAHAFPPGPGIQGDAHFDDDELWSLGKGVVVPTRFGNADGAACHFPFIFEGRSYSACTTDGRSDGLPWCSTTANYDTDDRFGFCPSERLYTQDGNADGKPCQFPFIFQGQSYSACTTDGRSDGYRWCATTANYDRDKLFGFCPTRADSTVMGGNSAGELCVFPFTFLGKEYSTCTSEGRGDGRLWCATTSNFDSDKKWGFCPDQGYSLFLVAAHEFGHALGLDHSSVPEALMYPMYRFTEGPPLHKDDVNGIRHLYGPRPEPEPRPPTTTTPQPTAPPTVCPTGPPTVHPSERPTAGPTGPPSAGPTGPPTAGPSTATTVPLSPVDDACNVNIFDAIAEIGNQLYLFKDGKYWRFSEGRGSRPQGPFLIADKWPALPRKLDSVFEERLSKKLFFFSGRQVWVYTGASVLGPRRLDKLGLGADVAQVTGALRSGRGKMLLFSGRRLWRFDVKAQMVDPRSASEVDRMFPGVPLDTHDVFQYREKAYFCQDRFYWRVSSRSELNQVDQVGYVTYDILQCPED
The target of a further test is ADAM9 (Homo sapiens (Human), UniProt Q13443). Briefly: Selectivity assay ADAM9. It counts as biochemical.
Sequence of ADAM9 (Q13443 29-819, species assumed): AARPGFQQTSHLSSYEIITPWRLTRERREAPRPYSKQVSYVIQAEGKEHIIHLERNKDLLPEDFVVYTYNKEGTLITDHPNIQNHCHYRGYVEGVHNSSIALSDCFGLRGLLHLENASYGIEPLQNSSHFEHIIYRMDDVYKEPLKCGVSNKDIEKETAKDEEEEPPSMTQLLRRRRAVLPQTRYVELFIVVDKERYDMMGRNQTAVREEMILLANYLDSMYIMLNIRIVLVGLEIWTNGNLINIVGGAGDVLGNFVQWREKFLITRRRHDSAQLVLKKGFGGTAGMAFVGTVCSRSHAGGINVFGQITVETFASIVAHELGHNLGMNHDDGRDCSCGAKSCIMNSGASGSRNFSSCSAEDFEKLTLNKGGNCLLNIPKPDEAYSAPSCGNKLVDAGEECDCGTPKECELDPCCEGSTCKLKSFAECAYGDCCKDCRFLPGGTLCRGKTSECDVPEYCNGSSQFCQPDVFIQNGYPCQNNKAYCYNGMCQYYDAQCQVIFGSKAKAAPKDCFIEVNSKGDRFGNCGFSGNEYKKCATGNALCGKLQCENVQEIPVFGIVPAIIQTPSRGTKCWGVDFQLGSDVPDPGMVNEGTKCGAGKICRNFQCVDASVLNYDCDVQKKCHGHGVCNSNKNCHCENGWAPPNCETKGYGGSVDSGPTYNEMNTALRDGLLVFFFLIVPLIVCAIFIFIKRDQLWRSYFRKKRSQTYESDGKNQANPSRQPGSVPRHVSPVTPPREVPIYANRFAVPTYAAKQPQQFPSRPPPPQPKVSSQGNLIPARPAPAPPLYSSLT
The target of another test is ADAM10 (Homo sapiens (Human), UniProt O14672). Description: Selectivity assay ADAM10. The test is classed as biochemical.
Sequence of ADAM10 (O14672 214-748, species assumed): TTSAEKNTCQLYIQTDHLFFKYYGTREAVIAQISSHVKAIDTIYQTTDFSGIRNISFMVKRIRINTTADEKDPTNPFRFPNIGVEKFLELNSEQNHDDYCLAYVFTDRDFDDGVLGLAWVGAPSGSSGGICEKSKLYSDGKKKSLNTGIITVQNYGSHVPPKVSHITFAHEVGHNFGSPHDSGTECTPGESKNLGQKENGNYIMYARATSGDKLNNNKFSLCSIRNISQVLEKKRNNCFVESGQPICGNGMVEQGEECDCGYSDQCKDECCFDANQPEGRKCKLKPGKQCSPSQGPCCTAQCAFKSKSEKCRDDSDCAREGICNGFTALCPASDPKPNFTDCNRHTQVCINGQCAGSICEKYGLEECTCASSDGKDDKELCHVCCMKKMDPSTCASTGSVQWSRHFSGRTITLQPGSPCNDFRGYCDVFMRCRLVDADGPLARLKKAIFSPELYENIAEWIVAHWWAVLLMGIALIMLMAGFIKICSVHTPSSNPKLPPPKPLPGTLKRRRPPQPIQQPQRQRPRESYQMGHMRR
Test [2] concerns TACE enzyme. As to conditions: from WO 00/44709, table 10, example 61; cited from earlier work.
[3] abbreviates: fluorescent substrate 40 μM, pH 7.4.

Each structure is given as a SMILES string.

Sequence of TACE enzyme (Homo sapiens, UniProt P78536) (P78536 215-824 limits assumed): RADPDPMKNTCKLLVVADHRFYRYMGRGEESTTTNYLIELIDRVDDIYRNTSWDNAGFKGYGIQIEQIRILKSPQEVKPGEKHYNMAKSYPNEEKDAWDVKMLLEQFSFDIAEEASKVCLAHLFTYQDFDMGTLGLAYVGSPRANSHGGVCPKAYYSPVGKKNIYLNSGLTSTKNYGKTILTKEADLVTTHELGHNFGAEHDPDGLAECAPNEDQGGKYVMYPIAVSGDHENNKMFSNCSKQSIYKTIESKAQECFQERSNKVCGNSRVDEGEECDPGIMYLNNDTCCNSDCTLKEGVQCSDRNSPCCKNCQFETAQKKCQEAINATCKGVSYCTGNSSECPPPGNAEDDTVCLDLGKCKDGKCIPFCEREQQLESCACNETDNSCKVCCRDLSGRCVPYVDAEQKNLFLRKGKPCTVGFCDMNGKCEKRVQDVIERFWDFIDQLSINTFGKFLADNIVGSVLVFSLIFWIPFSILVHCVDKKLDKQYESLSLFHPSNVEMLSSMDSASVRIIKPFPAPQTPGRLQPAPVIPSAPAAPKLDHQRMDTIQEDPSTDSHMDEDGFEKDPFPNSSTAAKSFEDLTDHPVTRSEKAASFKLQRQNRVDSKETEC
Sequence of MMP3 (P08254 100-477, species assumed): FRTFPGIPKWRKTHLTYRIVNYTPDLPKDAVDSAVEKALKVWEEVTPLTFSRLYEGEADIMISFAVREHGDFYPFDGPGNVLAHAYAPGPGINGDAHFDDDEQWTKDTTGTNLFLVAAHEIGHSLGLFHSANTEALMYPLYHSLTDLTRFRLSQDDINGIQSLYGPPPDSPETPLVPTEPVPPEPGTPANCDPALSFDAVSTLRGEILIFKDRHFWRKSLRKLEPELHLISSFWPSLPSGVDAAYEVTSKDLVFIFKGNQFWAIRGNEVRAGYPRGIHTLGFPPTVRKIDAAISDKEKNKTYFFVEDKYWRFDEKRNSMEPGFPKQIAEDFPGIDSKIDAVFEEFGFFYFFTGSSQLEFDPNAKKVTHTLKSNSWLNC
Sequence of MMP1 (P03956 100-469, species assumed): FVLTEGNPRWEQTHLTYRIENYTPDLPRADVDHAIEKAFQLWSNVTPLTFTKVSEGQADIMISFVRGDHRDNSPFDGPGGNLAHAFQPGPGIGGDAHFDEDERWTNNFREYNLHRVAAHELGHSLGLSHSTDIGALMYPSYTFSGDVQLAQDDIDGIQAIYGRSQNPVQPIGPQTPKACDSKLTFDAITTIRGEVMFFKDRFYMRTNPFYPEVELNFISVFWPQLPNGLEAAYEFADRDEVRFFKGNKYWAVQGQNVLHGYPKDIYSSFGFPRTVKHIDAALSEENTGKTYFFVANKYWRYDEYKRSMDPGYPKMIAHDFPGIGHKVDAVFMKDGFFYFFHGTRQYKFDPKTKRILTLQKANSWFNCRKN
Protocol for ADAM10: as §1
(§2) The enzymes are purchased from Calbiochem.
Protocol for ADAM9: as §1, §2
Protocol for MMP1: as §1, §2
Protocol for MMP9: as §1, §2

Broadly, the IC50 is the midpoint of a concentration-inhibition curve. Higher therefore signals a need for much substance. For the compound `Cc1cc(COc2ccc(S(=O)(=O)NC[C@@H](C(=O)NO)N3CCCCC3)cc2)c2ccccc2n1` [Example 8, (S)—N-hydroxy-3-[4-(2-methylquinolin-4-ylmethoxy)benzenesulfonylamino]-2-piperidin-1-ylpropionamide], the “% TACE inhibition at 10 μM” value on TACE enzyme [1] came to 99%. The IC50 on MMP1 is 3000 nM; at MMP3, 4500 nM; against MMP9 it was > 10000 nM; on ADAM9 it was > 10000 nM; at ADAM10, > 10000 nM.

On to `O=C(NO)[C@H](CNS(=O)(=O)c1ccc(OCc2ccccc2)cc1)N1CCCCC1` [Example 1, (S)-3-(4-benzyloxybenzenesulfonylamino)-N-hydroxy-2-piperidin-1-ylpropionamide], for which the “% TACE inhibition at 10 μM” value at TACE enzyme [1] stood at 98%. For the same compound, the IC50 against TACE enzyme [1] (setting [3]) turned out to be 181 nM.

Take `O=C(NO)[C@H](CNS(=O)(=O)c1ccc(OCc2ccccc2)cc1)N1CCOCC1` [Example 7, (S)-3-(4-benzyloxybenzenesulfonylamino)-N-hydroxy-2-morpholin-4-ylpropionamide]: the “% TACE inhibition at 10 μM” value on TACE enzyme [1] came out at 98%. At TACE enzyme [1] (setting [3]), half-maximal inhibition (IC50) was put at 147 nM.

With `O=C(NO)[C@H](CNS(=O)(=O)c1ccc(OCc2ccccc2)cc1)N1CCCC1` [Example 2, (S)-3-(4-benzyloxybenzenesulfonylamino)-N-hydroxy-2-pyrrolidin-1-ylpropionamide], the “% TACE inhibition at 10 μM” value at TACE enzyme [1] is 95%. Besides, the IC50 at TACE enzyme [1] (setting [3]) stood at 298 nM.

Regarding `O=C(NO)[C@H](CNS(=O)(=O)c1ccc(OCc2ccc(F)cc2)cc1)N1CCCCC1` [Example 3, (S)-3-[4-(4-fluorobenzyloxy)benzenesulfonylamino]-N-hydroxy-2-piperidin-1-ylpropionamide], the “% TACE inhibition at 10 μM” value on TACE enzyme [1] is reported as 97%. The compound further had an IC50 against TACE enzyme [1] (setting [3]) of 181 nM.

Regarding `CC1(C)SCCN(S(=O)(=O)c2ccc(OCC#CCO)cc2)[C@H]1C(=O)NO` [Apratastat], the “selectivity for the TACE enzyme compared with certain MMPs” value in the test on TACE enzyme [2] is reported as “not selective”.

For the compound `O=C(NO)[C@H](CNS(=O)(=O)c1ccc(OCc2ccc(Cl)c(Cl)c2)cc1)N1CCCCC1` [Example 6, (S)-3-[4-(3,4-dichlorobenzyloxy)benzenesulfonylamino]-N-hydroxy-2-piperidin-1-ylpropionamide], the “% TACE inhibition at 10 μM” value on TACE enzyme [1] came out at 97%. In addition, the IC50 at TACE enzyme [1] (setting [3]) was found to be 328 nM.

For `Cc1cc(COc2ccc(S(=O)(=O)NC[C@@H](C(=O)NO)N3CCCCC3)cc2)c2ccccc2n1.Cl.Cl` [Example 15, (S)—N-hydroxy-3-[4-(2-methylquinolin-4-ylmethoxy)benzenesulfonylamino]-2-piperidin-1-ylpropionamide dihydrochloride], the “% TACE inhibition at 10 μM” value on TACE enzyme [1] was 98%.

On to `Cc1cc(COc2ccc(S(=O)(=O)NC[C@@H](C(=O)NO)N3CCOCC3)cc2)c2ccccc2n1` [Example 14, (S)—N-hydroxy-3-[4-(2-methylquinolin-4-ylmethoxy)benzenesulfonylamino]-2-morpholin-4-ylpropionamide], for which, on TACE enzyme [1], the “% TACE inhibition at 10 μM” value is given as 91%. For the same compound, the IC50 worked out at 24 nM at TACE enzyme [1] (as listed in selectivity assay table), 38 nM at TACE enzyme [1] (setting [3]) and 3030 nM at MMP3.

With `O=C(NO)[C@H](CNS(=O)(=O)c1ccc(OCc2cc(Cl)cc(Cl)c2)cc1)N1CCCCC1` [Example 9, (S)-3-[4-(3,5-dichlorobenzyloxy)benzenesulfonylamino]-N-hydroxy-2-piperidin-1-ylpropionamide], the “% TACE inhibition at 10 μM” value at TACE enzyme [1] was 99%. The compound further registered an IC50 against TACE enzyme [1] (setting [3]) of 469 nM.

Take `O=C(NO)[C@H](CNS(=O)(=O)c1ccc(OCc2ccc3ccccc3c2)cc1)N1CCCCC1` [Example 5, (S)—N-Hydroxy-3-[4-(naphthalen-2-ylmethoxy)benzenesulfonylamino]-2-piperidin-1-ylpropionamide]: the “% TACE inhibition at 10 μM” value at TACE enzyme [1] is on record as 97%. Further, on TACE enzyme [1] (setting [3]), the half-inhibitory concentration (IC50) is 249 nM.

The record behind these values is patent publication US8772478B2, “Benzenesulfonamide compounds, method for synthesizing same, and use thereof in medicine as well as in cosmetics” (Galderma Research & Development, priority 2009, dated 2014).
